Here are results for 1 compound from patent publication US20260365662A1, “ISOANDROGRAPHOLIDE ANALOGS AND METHOD FOR TREATMENT USING THE SAME” (Enveda Therapeutics, Inc., priority 2023, published 2026).

Assay [1] deals with female BALB/c mouse. Briefly: MC-903 induced atopic dermatitis model, therapeutic mode, vs oral JAK-i (Example 15). The format is in vivo. The following applies: twice a day; for dermatitis severity scores: vs MC-903 vehicle control. As for the experimental part:
Experimental details: Preclinical animal model of atopic dermatitis was developed by MC-903, a vitamin-D analogue. In the current study, the test item Compound 2 was screened in therapeutic mode, to evaluate its efficacy in MC-903 induced AD model. 2 nmol of MC-903 was topically applied to 8-10 weeks old female BALB/c mouse from G2-G8 group at a volume of 50 μl/mouse on back skin on every alternate day for 14 days to induced disease. For the G1 group, (Normal+ethanol control) the same volume of ethanol that was used to solubilize MC-903 was applied. Clobetasol (0.05%, 15 mg/mouse) was applied topically once a day to G3 group animals, Upadacitinib was dosed oral twice a day at 2, 6 & 20 mg/kg to G4, G5 & G6 respectively. Compound 2 was administered twice a day to respective treatment groups (G7-G10) for 14 days. On the day of MC-903 administration, test compounds were dosed one hour prior to MC-903 insult. Clinical scores to assess the disease intensity were measured from visual examination for erythema, scaling and back skin thickness using dial caliper. All the scores were carried by blinded observers to treatment groups. Disease severity was assessed by dermatitis severity scores.

For assay [2], the system named is female BALB/c mouse. The assay can be described thus: MC-903 induced atopic dermatitis model, prophylactic (Example 12). It is filed as in vivo. As to conditions: for immune cell infiltration: histopathology, back skin; for IL-31 expression: itch marker. The protocol:
Experimental details: Preclinical animal model of atopic dermatitis was developed by MC-903, a vitamin-D analogue. In the current study, the test item Compound 2 was screened to evaluate its efficacy in MC-903 induced AD model. 2 nmol of MC-903 was topically applied to 8-10 weeks old female BALB/c mouse from G2-G7 group at a volume of 50 μl/mouse on back skin on every alternate day for 14 days to induced disease. For the G1 group, (Normal+ethanol control) the same volume of ethanol that was used to solubilize MC-903 was applied. Clobetasol (0.05%, 20 mg) was applied topically once a day to G3 group animals. Compound 2 was administered twice a day to respective treatment groups (G4-G7) for 14 days. On the day of MC-903 administration, test compounds were dosed one hour prior to MC-903 insult. Clinical scores to assess the disease intensity were measured from visual examination for erythema, scaling and back skin thickness using dial caliper. All the scores were carried by blinded observers to treatment groups. Cumulative dermatitis severity scores were calculated by adding up the individual scores of erythema, scaling & thickness. On day-14 of the study, all animals were terminally bled under mild anesthesia followed by humane sacrifice and back skin tissue was dissected. Required skin tissue samples were collected in fixative and part of the tissue was flash-frozen in liquid nitrogen and stored at −80 °C. Collected tissue samples were processed and used for biomarker analysis using gene and protein expression analysis by qPCR & ELISA, pharmacokinetic analysis by LC-MS and histopathology studies.

The mark [3] stands for this setting: twice a day, 14 days, vs MC-903 vehicle control.

On to `C[C@@]12CCC(=O)N[C@@](C)(CO)[C@H]1CC[C@@]1(C)O[C@H](C3=CCOC3=O)C[C@@H]21` [Compound 2, (2S,3aR,5aS,6R,10aR,10bS)-6-(hydroxymethyl)-3a,6,10a-trimethyl-2-(2-oxo-2,5-dihydrofuran-3-yl) dodecahydro-8H-benzofuro[5,4-c]azepin-8-one], for which, in the assay with female BALB/c mouse [1], the “efficacy compared with oral JAK-i” value is “Efficacy On-Par with Oral JAK-i” and the dermatitis severity scores entry was “significant dose dependent decrease in dermatitis severity scores on-par with oral JAK-i”. In addition, the dermatitis severity scores result in the assay on female BALB/c mouse [1] (listed as compound 2) is given as “significantly reduces dermatitis severity scores on-par with oral JAK-i”. In addition, in the assay on female BALB/c mouse [2] (FIG. 12C), the neutrophil infiltration result is recorded as “robustly reduces”. The “early barrier alarmins in skin” value in the assay with female BALB/c mouse [2] (FIG. 12G) is “reduces early barrier alarmins”. For the same compound, the tissue cytokine expression result in the assay on female BALB/c mouse [2] (FIG. 12H) was “impacts tissue cytokine expression”. Further, the “improvement of MC-903-induced atopic dermatitis” value in the assay with female BALB/c mouse [2] (compared with high-potency topical corticosteroids) is given as “comparable to high-potency topical corticosteroids”. Moreover, the immune cell infiltration entry in the assay on female BALB/c mouse [2] is on record as “significantly reduced”. Further, the immune cell infiltration result in the assay with female BALB/c mouse [2] (listed as compound 2) was “reduced dose-dependent immune cell infiltration”. Besides, in the assay with female BALB/c mouse [2] (hyperkeratosis, parakeratosis, lengthening and clubbing of rete ridges, vs MC-903 vehicle control), the “histopathological changes and final histopathology scores” value was “significantly reduced”. Besides, in the assay on female BALB/c mouse [2] (prophylactic, back skin tissue), the IL-31 expression entry is on record as “significantly reduced”, the IL-4 expression result is recorded as “significantly reduced”, the IL-13 expression result is “significantly reduced” and the Krt6a expression result is “significantly reduced”. For the same compound, in the assay with female BALB/c mouse [2] (prophylactic, back skin tissue), the “Tissue TSLP expression” value was “significantly reduced”. Moreover, in the assay with female BALB/c mouse [2] (prophylactic, back skin tissue, listed as compound 2), the IL-31 expression result is listed as “decreases IL-31 expression”. Moreover, the NGAL levels entry in the assay with female BALB/c mouse [2] (neutrophil marker, back skin tissue) is “significantly reduced”. Further, in the assay with female BALB/c mouse [2] (neutrophil marker, back skin tissue, listed as compound 2), the NGAL levels entry was “significantly reduces NGAL levels”. In addition, the Lipocalin-2 expression entry in the assay with female BALB/c mouse [2] (neutrophil marker, prophylactic, back skin tissue) is listed as “significantly reduced”. Also, in the assay on female BALB/c mouse [2] (setting [3]), the dermatitis severity scores result is reported as “dose dependent decrease” and the epidermal thickness entry is “significantly reduced”. Moreover, in the assay on female BALB/c mouse [2] (twice a day, 14 days, vs MC-903 vehicle control, listed as compound 2), the epidermal thickness entry is reported as “robustly reduces epidermal thickness”.
